Source: patent US6911477B2, “Muscarinic receptor agonists” (Pfizer Inc., priority 1996, dated 2005)
Structures can show the parent of a compound that is named as a salt.

Key:
human m4 receptor = target: T1, human m4 receptor (Homo sapiens, UniProt P08173); experiment: inhibition of forskolin-stimulated cAMP accumulation, m4 receptor; format: cell-based; conditions: standard agonist, typical value, 5 μM forskolin
T1 construct: host or cells: CHO-K1
T1 sequence (P08173 1-479): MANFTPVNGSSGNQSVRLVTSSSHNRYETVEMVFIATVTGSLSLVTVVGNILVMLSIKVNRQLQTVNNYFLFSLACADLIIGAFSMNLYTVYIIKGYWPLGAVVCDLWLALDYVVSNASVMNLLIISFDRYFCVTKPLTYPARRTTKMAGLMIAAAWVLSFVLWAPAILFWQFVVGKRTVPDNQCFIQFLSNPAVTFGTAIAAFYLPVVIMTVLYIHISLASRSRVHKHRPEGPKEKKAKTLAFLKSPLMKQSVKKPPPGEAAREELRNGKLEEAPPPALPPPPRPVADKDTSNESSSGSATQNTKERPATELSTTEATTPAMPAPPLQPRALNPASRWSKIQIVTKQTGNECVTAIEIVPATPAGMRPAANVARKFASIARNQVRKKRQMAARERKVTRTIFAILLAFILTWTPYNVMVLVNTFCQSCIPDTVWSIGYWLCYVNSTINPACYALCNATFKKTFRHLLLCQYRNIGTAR
Source text: (§1) Activity of the compounds of formula I for muscarinic receptors can be determined according to the following protocol. Chinese hamster ovary cells (CHO-K1) stably transformed to express human m1-m5 receptors can be obtained from Dr. Tom Bonner (Laboratory of Cell Biology, National Institute of Mental Health, Building 36, Rm 3A-17, National Institute of Health, Bethesda, Md. 20892). Cells are maintained in Dulbecco's Modified Eagle Medium containing 10% fetal calf serum and harvested at confluence by brief incubation in Ca^++/Mg^++-free phosphate-buffered saline containing 4 mM EDTA.
(§2) Functional responses at m2 and m4 receptors can be determined by measuring inhibition of forskolin-stimulated cAMP accumulation. Harvested cells are preincubated (15 minutes at 20-22° C.) with 3-isobutyl-1-methyl-xanthine (IBMX; 0.2 mM) and then incubated (10 minutes at 20-22° C.) in a HEPES-buffered Krebs solution with test compounds in the presence of 5 μM forskolin. The reaction is stopped by the addition of 10 N acetic acid and the cAMP content of dried supernatants is determined using a scintillation proximity assay (Amersham).

human m2 receptor = target: T2, human m2 receptor (Homo sapiens, UniProt P08172); experiment: inhibition of forskolin-stimulated cAMP accumulation, m2 receptor; format: cell-based; conditions: standard agonist, typical value, 5 μM forskolin
T2 sequence (P08172 1-466): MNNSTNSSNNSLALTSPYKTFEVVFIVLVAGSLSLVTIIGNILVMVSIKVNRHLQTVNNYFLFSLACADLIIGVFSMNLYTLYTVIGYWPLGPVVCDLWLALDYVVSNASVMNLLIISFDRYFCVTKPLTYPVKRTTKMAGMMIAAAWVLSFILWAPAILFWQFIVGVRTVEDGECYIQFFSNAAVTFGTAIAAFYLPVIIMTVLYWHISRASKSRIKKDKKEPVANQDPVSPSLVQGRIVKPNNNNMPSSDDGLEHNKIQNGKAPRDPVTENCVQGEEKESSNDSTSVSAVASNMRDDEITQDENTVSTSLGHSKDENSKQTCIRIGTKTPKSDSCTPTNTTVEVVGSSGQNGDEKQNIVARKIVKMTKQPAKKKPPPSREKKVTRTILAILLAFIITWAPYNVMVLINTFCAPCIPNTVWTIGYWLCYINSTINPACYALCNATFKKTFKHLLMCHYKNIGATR
Source text: as §1, §2

## CC1CCN(C(=Nc2ccccc2)NC(=Nc2ccccc2)c2ccccc2)CC1 (as salt: hydroiodid) [Example 21, N-[(4-methyl-piperidin-1-yl)-phenylimino-methyl]-N′-phenyl-benzamidine]
other
  melting point: 192 to 195 °C (dec.)

## c1ccc(N=C(NC(=Nc2ccccc2)N2CCCCCCC2)c2ccccc2)cc1 (as salt: hydroiodid) [Example 22, N-(azocan-1-yl-phenylimino-methyl)-N′-phenyl-benzamidine]
other
  melting point: 252 to 253 °C (dec.)

## CC1CCCN(C(=Nc2ccccc2)NC(=Nc2ccccc2)c2ccccc2)C1 (centres unmarked) (as salt: hydroiodid) [Example 23, N-[(3-methyl-piperidin-1-yl)-phenylimino-methyl]-N′-phenyl-benzamidine]
other
  melting point: 179 to 182 °C (dec.)

## Cc1cccc(C)c1C(=Nc1ccccc1)NC(=Nc1ccccc1)N1CCCC1 (as salt: hydroiodid) [Example 31, N-[(2,6-dimethyl-phenyl)-phenylimino-methyl]-N′-phenyl-pyrrolidine-1-carboxamidine]
other
  melting point: 255 to 257 °C

## CC1CCCCN1C(=Nc1ccccc1)NC(=Nc1ccccc1)c1ccccc1 (centres unmarked) (as salt: hydroiodid) [Example 32, N-[(2-methyl-piperidin-1-yl)-phenylimino-methyl]-N′-phenyl-benzamidine]
other
  melting point: 181 to 183 °C

## CC1CCCCN1C(=Nc1ccccc1)NC(=Nc1ccccc1)c1ccccc1 (centres unmarked) (as salt: hydroiodid) [Example 33, N-[(2-methyl-piperidin-1-yl)-phenylimino-methyl]-N′-phenyl-benzamidine]
other
  melting point: 180 to 182 °C

## c1ccc(N=C(NC(=Nc2ccccc2)N2CCCCO2)c2ccccc2)cc1 (as salt: nitrate) [Example 4, N-([1,2]Oxazinan-2-yl-phenylimino-methyl)-N′-phenyl-benzamidine]
other
  melting point: 187 to 190 °C

## OC1CCCN(C(=Nc2ccccc2)NC(=Nc2ccccc2)c2ccccc2)C1 (centres unmarked) (as salt: nitrate) [Example 38, N-[(3-hydroxy-piperidin-1-yl)-phenylimino-methyl]-N′-phenyl-benzamidine]
other
  melting point: 189 to 192 °C

## Fc1ccccc1C(=Nc1ccccc1)NC(=Nc1ccccc1)N1CCCC1 (as salt: nitrate) [Example 39, N-[(2-fluoro-phenyl)-phenylimino-methyl]-N′-phenyl-pyrrolidine-1-carboxamidine]
other
  melting point: 194 to 196 °C

## Cc1ccccc1C(=NC(=Nc1ccncc1)N1CCCCC1C)Nc1ccc(F)cc1 (centres unmarked) (as salt: nitrate) [Example 40, N-(4-fluoro-phenyl)-2-methyl-N′-[(2-methyl-piperidin-1-yl)-(pyridin-4-ylimino)-methyl]-benzamidine]
other
  melting point: 209 to 210 °C (dec.)

## CC1CCCCN1C(N=C(Nc1ccc(F)cc1)c1c(F)cccc1F)=Nc1ccccc1 (centres unmarked) (as salt: nitrate) [Example 44, 2,6-difluoro-N-(4-fluoro-phenyl)-N′-[(2-methyl-piperidin-1-yl)-phenylimino-methyl]-benzamidine]
other
  melting point: 163 to 165 °C (dec.)

## CC1CCCCN1C(N=C(Nc1ccc(F)cc1)c1c(F)cccc1F)=Nc1ccc(F)cc1 (centres unmarked) (as salt: nitrate) [Example 51, 2,6-difluoro-N-(4-fluoro-phenyl)-N′-[(4-fluoro-phenylimino)-(2-methyl-piperidin-1-yl)-methyl]-benzamidine]
other
  melting point: 171 to 173 °C

## CC1CCCC(C)N1C(=Nc1ccc(F)cc1)NC(=Nc1ccc(F)cc1)c1c(F)cccc1F (centres unmarked) (as salt: nitrate) [Example 52, N-[(2,6-dimethyl-piperidin-1-yl)-(4-fluoro-phenylimino)-methyl]-2,6-difluoro-N′-(4-fluoro-phenyl)-benzamidine]
other
  melting point: 172 to 174 °C

## Fc1ccc(N=C(NC(=Nc2ccccc2)N2CCCCCC2)c2c(F)cccc2F)cc1 (as salt: nitrate) [Example 56, N-(azepan-1-yl-phenylimino-methyl)-2,6-difluoro-N′-(4-fluoro-phenyl)-benzamidine]
other
  melting point: 171 to 173 °C

## C(=C(Nc1ccccc1)c1ccccc1)C(=Nc1ccccc1)N1CCCC1 (as salt: nitrate) [Example 87, (3-phenylimino-3-pyrrolidin-1-yl-1-phenyl-propenyl)-phenylamine]
other
  melting point: 184 to 186 °C

## Cc1ccccc1C(=CC(=Nc1ccccc1)N1CCCCO1)Nc1ccc(F)cc1 (as salt: nitrate) [Example 91, (3-phenylimino-3-[1,2]oxazinan-2-yl-1-o-tolyl-propenyl)-(4-fluoro-phenyl)-amine]
other
  melting point: 151 to 153 °C

## Fc1ccc(NC(=CC(=NC2CC2)N2CCCCO2)c2ccccc2)cc1 (as salt: nitrate) [Example 110, (3-cyclopropylimino-3-[1,2]oxazinan-2-yl-1-phenyl-propenyl)-(4-fluoro-phenyl)-amine]
other
  melting point: 82 to 84 °C

## C[N+](C)(C)CCOC(N)=O [Carbachol]
Human m4 receptor
  inhibition of the forskolin-stimulated cAMP levels: 60-80%
Human m2 receptor
  inhibition of the forskolin-stimulated cAMP levels: 60-80%

## Cc1ccccc1C(=NC(=Nc1ccccc1)C1(C)CCCCC1)Nc1ccc(F)cc1 [Example 11, N-(4-Fluoro-phenyl)-2-methyl-N′-[(1-methyl-cyclohexyl)-phenylimino-methyl]-benzamidine]
other
  melting point: 210 to 211 °C
